Results on eight compounds are retold here after patent US20020002144A1, “Methods and compositions for bisubstrate inhibitors of acetyltransferases” (The Government of the United States of America, Department …, priority 1999, published 2002).

The subject of data set [1] is arylamine N-acetyltransferase (E.C. 2.3.1.5). Particulars: adverse reactions reported to result from acetylation of the drug; cited from earlier work.
Data set [2] concerns the target T1, AANAT (Ovis aries, UniProt Q29495).
T1 construct: made in house
Description: AANAT assay with aqueous extracts of AANAT/CoA/N-bromoacetyltryptamine pre-incubations. The format is biochemical. Particulars: 20 μl extract in 100 μl AANAT assay. The method, then: AANAT assay: The specific activity of the AANAT preparation was determined from measurement of the activity of the enzyme and amount of protein in a preparation. Activity was assayed by incubating the enzyme with ^3H-acetyl CoA (0.5 mM, 4 μCi/μmole) and tryptamine hydrochloride (1 mM), bovine serum albumin (0.5 mg/ml) and the enzyme in total volume of 100 μl of sodium phosphate (0.1M, pH 6.8) (6,7). The incubation was terminated by extracting the product ^3H-acetyltryptamine with chloroform (1 ml). The chloroform phase was washed sequentially with 200 μl of the sodium phosphate buffer and twice with 200 μl of NaOH (1N). The radioactivity in 400 μl of the chloroform phase was determined following evaporation of chloroform under vacuum. Protein was measured by optical density at 280 nm and by dye binding using the Brandford procedure.
Incubations to study formation of CoA-S-N-acetyltryptamine.—Bromoacetyltryptamine (20 μM) was incubated (37° C., 30 min) with coenzyme A (20 μM), bovine serum albumin (0.5 mg/ml) and the enzyme in a total volume of 100 μl of Tris HCl (50 mM, pH 7.4) and the incubation was terminated by adding chloroform (1 ml) and vortexing. The aqueous phase was then removed. Samples of the aqueous phase from each chloroform extraction were analyzed by mass spectroscopy and for inhibitory activity in an AANAT assay.
This conclusion was supported by the biochemical evidence from experiments in which the aqueous extracts analyzed above were incubated with a fresh preparation of AANAT in an AANAT assay. Inhibitory activity of the extract was determined.

Data set [3] relates to rat pinealocytes. Description: Melatonin production by norepinephrine-treated pinealocytes (radioimmunoassay of medium). The class given is cell-based. Particulars: for Melatonin production: Experiment 1, 18-24 hours; for Melatonin (18-23 hr): Experiment 2. The method, then: (§1) Pineal cell preparation and treatment: Pinealocytes were prepared from rat pineal glands by trypsinization as previously described (10). The cells were suspended in Dulbecco's modified Eagle medium (DMEM) containing 10% fetal calf serum and maintained (37° C.) for 18 h in a gas mixture of 95% air and 5% CO2. During this 18 hour period, some cells were treated, as indicated in Table 2 experiment 2, in aliquots of 50,000 cells/300 μl and washed prior to addition of fresh medium and further treatment. In some cases, as in Table 3, experiment 1, cells were not aliquoted until after 18 hours of control incubation and in these cases, aliquots of cells (50,000 cells/300 μl) were prepared and treated with drugs. Drugs were prepared in 100×concentrated solutions in water or dimethyl sulfoxide. The duration of the drug treatment was 5 h.
At the end of treatment period, cells were collected by centrifugation (2 min, 10,000 g) and the medium was removed and stored. Cell pellets were frozen immediately in dry ice and stored at −80° C. until determination of AANAT activity. The supernatant collected was used for determination of melatonin.
Melatonin analysis. Melatonin in the medium was determined by a radioimmunoassay as described previously (11,12). Briefly, melatonin was extracted from 300 μl of medium by vortexing with 1 ml of methylene chloride. After centrifugation, 700 μl of the organic phase was collected and evaporated to dryness. The residue was reconstituted in 500 μl of assay buffer (0.01M phosphate buffer, pH 7.5, containing 0.1% gelatin).
An ultraspecific melatonin antiserum from CIDtech Research Inc. (Mississauga, Ontario Canada) was used for the melatonin radioimmunoassay. Aliquots of extracted melatonin samples were diluted to 500 μl with assay buffer. 100 μl of melatonin antiserum and 50 μl of [^3H]melatonin (˜2000 cpm, at 45.5 Ci/mmol) were then added. After mixing, the tubes were incubated at 4° C. overnight. To separate the bound from the free [^3H] melatonin, 650 μl of saturated ammonium sulphate were added and the samples were incubated at 4° C. for 1 hr. The bound [^3H]melatonin was collected in a protein pellet by centrifugation (4,000 g×30 min) and re-dissolved in 550 μl of deionized water. 500 μl was then used for scintillation counting. Both inter- and intra-assay variability were less than 10%.
N-Bromoacetyltryptamine treatment of rat pinealocytes inhibits melatonin production. Experiments were conducted to determine if N-bromoacetyltryptamine could inhibit production of melatonin. This was done using rat pinealocytes in which melatonin production was elevated by treatment with norepinephrine, which acts by elevating the activity of AANAT.

The target of data set [4] is T2, AANAT (Rattus norvegicus, UniProt Q64666).
T2 construct: Pinealocytes were prepared from rat pineal glands by trypsinization; endogenous in cells; host or cells: primary pinealocytes from male Sprague-Dawley rats
T2 sequence (Q64666 whole entry): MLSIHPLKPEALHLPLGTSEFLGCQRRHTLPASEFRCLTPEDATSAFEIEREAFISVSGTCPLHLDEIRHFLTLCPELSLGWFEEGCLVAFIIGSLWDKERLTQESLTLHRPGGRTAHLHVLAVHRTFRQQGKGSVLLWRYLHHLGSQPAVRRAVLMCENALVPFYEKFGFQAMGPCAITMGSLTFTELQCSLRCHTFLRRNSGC
Description: AANAT activity in treated pinealocytes. The class given is cell-based. Particulars: Experiment 2. On the procedure: AANAT assay: The specific activity of the AANAT preparation was determined from measurement of the activity of the enzyme and amount of protein in a preparation. Activity was assayed by incubating the enzyme with ^3H-acetyl CoA (0.5 mM, 4 μCi/μmole) and tryptamine hydrochloride (1 mM), bovine serum albumin (0.5 mg/ml) and the enzyme in total volume of 100 μl of sodium phosphate (0.1M, pH 6.8) (6,7). The incubation was terminated by extracting the product ^3H-acetyltryptamine with chloroform (1 ml). The chloroform phase was washed sequentially with 200 μl of the sodium phosphate buffer and twice with 200 μl of NaOH (1N). The radioactivity in 400 μl of the chloroform phase was determined following evaporation of chloroform under vacuum. Protein was measured by optical density at 280 nm and by dye binding using the Brandford procedure. Pineal cell preparation and treatment: Pinealocytes were prepared from rat pineal glands by trypsinization as previously described (10). The cells were suspended in Dulbecco's modified Eagle medium (DMEM) containing 10% fetal calf serum and maintained (37° C.) for 18 h in a gas mixture of 95% air and 5% CO2. During this 18 hour period, some cells were treated, as indicated in Table 2 experiment 2, in aliquots of 50,000 cells/300 μl and washed prior to addition of fresh medium and further treatment. In some cases, as in Table 3, experiment 1, cells were not aliquoted until after 18 hours of control incubation and in these cases, aliquots of cells (50,000 cells/300 μl) were prepared and treated with drugs. Drugs were prepared in 100×concentrated solutions in water or dimethyl sulfoxide. The duration of the drug treatment was 5 h. At the end of treatment period, cells were collected by centrifugation (2 min, 10,000 g) and the medium was removed and stored. Cell pellets were frozen immediately in dry ice and stored at −80° C. until determination of AANAT activity. The supernatant collected was used for determination of melatonin.

The subject of data set [5] is rat pinealocytes. Description: Cytotoxicity to pinealocytes (response to norepinephrine after wash out). Particulars: 18 hour treatment with 0.5 μM, medium changed, then norepinephrine. The class given is cell-based. The method, then: as §1
The effect of an 18 hour treatment with 0.5 μM N-bromoacetyltryptamine was examined. Following the 18 hour treatment, the medium was changed and fresh medium was added. Following this treatment, cells responded to norepinephrine treatment with an increase in melatonin production and AANAT activity.

[6] abbreviates: Treatment I BAT (0.5 μM) (0-18 hr), wash out, Treatment II NE (10 μM) (18-23 hr).
The mark [7] stands for this setting: Treatment I DMSO (0-18 hr), Treatment II NE 10 μM + BAT (0.5 μM) (18-23 hr).
Setting [8] is: Treatment I DMSO (0-18 hr), Treatment II NE 10 μM (18-23 hr).

T1 sequence (Q29495 whole entry): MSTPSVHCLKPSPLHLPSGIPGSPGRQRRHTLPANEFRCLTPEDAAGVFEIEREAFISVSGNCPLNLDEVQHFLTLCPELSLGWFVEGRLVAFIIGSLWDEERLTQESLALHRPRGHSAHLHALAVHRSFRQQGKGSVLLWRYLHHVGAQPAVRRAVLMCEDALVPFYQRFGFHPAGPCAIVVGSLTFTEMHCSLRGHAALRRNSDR

In the case of `CCC1(c2ccc(N)cc2)CCC(=O)NC1=O` (centres unmarked) [Aminoglutethamide], the “Adverse Drug Reaction Reported” value in data set [1] was “Adrenal insufficiency”.
As to `Nc1ccc(S(=O)(=O)c2ccc(N)cc2)cc1` [Dapsone], the “Adverse Drug Reaction Reported” value in data set [1] is given as “Hematological”.
As to `NNc1nncc2ccccc12` [Hydralazine], the “Adverse Drug Reaction Reported” value in data set [1] was “Lupus, uncontrolled hypertension”.
As for `NNC(=O)c1ccncc1` [Isoniazid], the “Adverse Drug Reaction Reported” value in data set [1] is recorded as “Peripheral neuropathy, liver”.
With `O=C(CBr)NCCc1c[nH]c2ccccc12` [N-Bromoacetyltryptamine], on AANAT [2] (Complete pre-assay reaction (AANAT + CoA 20 μM + N-bromoacetyltryptamine 20 μM, 37° C., 30 min), read-out: AANAT Activity (% of control)), the remaining activity at 20 µM came out at 38%. In addition, the “AANAT Activity (% of control)” value at AANAT [2] (pre-assay reaction Minus CoA) is on record as 107%; on AANAT [2] (pre-assay reaction Zero time (not incubated)), 110%; at AANAT [2] (pre-assay reaction with Boiled enzyme), 104%. Also, the production of melatonin result in the data set with rat pinealocytes [3] (5 hour treatment with 0.1, 0.5 or 1 μM, norepinephrine-treated rat pinealocytes) is “markedly reduced”. Besides, the Melatonin production in the data set on rat pinealocytes [3] (N-Bromoacetyltryptamine (1 μM) alone) was 0.65 ± 0.05 pmol/100,000 cells; in the data set with rat pinealocytes [3] (Norepinephrine (10 μM) + N-Bromoacetyltryptamine (0.1 μM)), 4.55 ± 0.04 pmol/100,000 cells; in the data set on rat pinealocytes [3] (Norepinephrine (10 μM) + N-Bromoacetyltryptamine (1 μM)) it was 0.95 ± 0.25 pmol/100,000 cells. The “Melatonin (18-23 hr)” value with rat pinealocytes [3] (Treatment I BAT (0.5 μM) (0-18 hr), wash out, Treatment II Control (18-23 hr)) was 1.78 ± 0.14 pmole/10^5 cells; in the data set with rat pinealocytes [3] (setting [6]), 12.22 ± 2.90 pmole/10^5 cells; with rat pinealocytes [3] (setting [7]) it was 1.88 ± 0.82 pmole/10^5 cells. In addition, the “AANAT (23 hr)” value stood at 0.86 ± 0.06 μmol/h/105 cells at AANAT [4] (setting [6]) and 0.48 ± 0.05 μmol/h/105 cells on AANAT [4] (setting [7]). Besides, the cytotoxicity entry in the data set with rat pinealocytes [5] is reported as “not cytotoxic”.
Consider `NC[C@H](O)c1ccc(O)c(O)c1` [Norepinephrine, reference compound], for which, in the data set on rat pinealocytes [3] (Norepinephrine (10 μM) alone), the Melatonin production was 12.43 ± 2.00 pmol/100,000 cells. In the data set with rat pinealocytes [3] (setting [8]), the “Melatonin (18-23 hr)” value is reported as 10.44 ± 1.07 pmole/10^5 cells. For the same compound, the “AANAT (23 hr)” value on AANAT [4] (setting [8]) is 0.89 ± 0.10 μmol/h/105 cells.
Take `CCN(CC)CCNC(=O)c1ccc(N)cc1` [Procainamide]: the “Adverse Drug Reaction Reported” value in data set [1] is reported as “Lupus, uncontrolled arrhythmias”.
Take `Cc1cc(C)nc(NS(=O)(=O)c2ccc(N)cc2)n1` [Sulfamethazine]: the “Adverse Drug Reaction Reported” value in data set [1] is given as “Hematological/Gastrointestinal”.
